In ChEMBL document CHEMBL5291721, “A preclinical secondary pharmacology resource illuminates target-adverse drug reaction associations of marketed drugs” (Nat Commun, 2023):

Columns and labels:
Melanocortin receptor 3 = Melanocortin receptor 3 (Homo sapiens, UniProt P41968)
Vasopressin V1a receptor = Vasopressin V1a receptor (Homo sapiens, UniProt P37288)
[1] = molecular target: T1, 5-hydroxytryptamine receptor 2C (Homo sapiens, UniProt P28335)
T1 sequence (P28335 whole entry): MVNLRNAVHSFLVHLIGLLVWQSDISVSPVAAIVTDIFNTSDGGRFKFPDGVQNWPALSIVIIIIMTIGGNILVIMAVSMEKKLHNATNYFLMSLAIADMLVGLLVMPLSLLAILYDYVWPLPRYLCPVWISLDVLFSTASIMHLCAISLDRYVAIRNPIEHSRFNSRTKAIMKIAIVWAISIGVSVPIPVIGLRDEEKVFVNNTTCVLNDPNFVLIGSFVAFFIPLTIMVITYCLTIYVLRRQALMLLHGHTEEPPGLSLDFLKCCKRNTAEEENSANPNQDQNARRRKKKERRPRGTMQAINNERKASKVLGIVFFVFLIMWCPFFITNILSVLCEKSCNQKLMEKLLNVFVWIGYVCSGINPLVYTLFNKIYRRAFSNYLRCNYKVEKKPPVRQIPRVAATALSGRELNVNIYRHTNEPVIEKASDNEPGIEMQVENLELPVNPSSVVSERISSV

[2] = molecular target: T2, 5-hydroxytryptamine receptor 1A (Homo sapiens, UniProt P08908); assay type: functional, cell-based
T2 sequence (P08908 whole entry): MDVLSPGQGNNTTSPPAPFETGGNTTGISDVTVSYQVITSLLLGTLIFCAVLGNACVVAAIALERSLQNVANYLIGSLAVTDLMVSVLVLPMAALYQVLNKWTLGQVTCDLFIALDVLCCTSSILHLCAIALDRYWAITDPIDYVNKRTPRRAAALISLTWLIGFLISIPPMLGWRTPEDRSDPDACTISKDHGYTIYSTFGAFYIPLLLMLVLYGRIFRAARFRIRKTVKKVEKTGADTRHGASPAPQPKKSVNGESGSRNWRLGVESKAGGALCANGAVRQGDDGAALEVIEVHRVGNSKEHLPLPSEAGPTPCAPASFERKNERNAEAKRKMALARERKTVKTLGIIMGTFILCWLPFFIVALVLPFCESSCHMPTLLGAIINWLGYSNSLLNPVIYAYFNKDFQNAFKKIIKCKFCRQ

[3] = molecular target: T3, Type-1 angiotensin II receptor (Homo sapiens, UniProt P30556)
T3 sequence (P30556 whole entry): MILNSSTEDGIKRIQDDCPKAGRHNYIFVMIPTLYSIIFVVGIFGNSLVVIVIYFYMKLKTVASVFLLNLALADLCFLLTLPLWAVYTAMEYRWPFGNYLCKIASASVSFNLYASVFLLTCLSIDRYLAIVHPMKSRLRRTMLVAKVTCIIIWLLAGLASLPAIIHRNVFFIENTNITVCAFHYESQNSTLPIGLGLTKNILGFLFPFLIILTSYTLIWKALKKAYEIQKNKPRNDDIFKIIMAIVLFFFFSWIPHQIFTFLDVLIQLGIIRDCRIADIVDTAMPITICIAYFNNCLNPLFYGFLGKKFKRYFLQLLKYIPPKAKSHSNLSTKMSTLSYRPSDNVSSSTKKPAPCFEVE

[4] = molecular target: Beta-2 adrenergic receptor (Homo sapiens, UniProt P07550); assay type: functional, cell-based
Cannabinoid receptor 1 = Cannabinoid receptor 1 (Homo sapiens, UniProt P21554)
[5] = molecular target: T4, Alpha-2A adrenergic receptor (Homo sapiens, UniProt P08913)
T4 sequence (P08913 whole entry): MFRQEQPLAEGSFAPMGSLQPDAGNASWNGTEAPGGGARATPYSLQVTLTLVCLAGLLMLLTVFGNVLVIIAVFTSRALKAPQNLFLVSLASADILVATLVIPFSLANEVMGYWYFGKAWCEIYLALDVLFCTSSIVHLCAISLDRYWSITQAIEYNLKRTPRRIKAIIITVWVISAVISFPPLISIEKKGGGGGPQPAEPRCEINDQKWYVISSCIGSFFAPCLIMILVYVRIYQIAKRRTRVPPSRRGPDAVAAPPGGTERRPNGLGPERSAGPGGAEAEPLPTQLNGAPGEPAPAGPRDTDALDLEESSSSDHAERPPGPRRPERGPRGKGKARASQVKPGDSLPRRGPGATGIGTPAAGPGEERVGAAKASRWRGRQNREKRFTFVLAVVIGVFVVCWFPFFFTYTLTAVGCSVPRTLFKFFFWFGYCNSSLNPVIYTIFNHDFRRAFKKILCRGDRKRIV

Prothrombin = Prothrombin (Homo sapiens, UniProt P00734); assay type: functional
[6] = molecular target: Sodium-dependent dopamine transporter (Homo sapiens, UniProt Q01959)
Progesterone receptor = molecular target: T5, Progesterone receptor (Homo sapiens, UniProt P06401)
T5 sequence (P06401 whole entry): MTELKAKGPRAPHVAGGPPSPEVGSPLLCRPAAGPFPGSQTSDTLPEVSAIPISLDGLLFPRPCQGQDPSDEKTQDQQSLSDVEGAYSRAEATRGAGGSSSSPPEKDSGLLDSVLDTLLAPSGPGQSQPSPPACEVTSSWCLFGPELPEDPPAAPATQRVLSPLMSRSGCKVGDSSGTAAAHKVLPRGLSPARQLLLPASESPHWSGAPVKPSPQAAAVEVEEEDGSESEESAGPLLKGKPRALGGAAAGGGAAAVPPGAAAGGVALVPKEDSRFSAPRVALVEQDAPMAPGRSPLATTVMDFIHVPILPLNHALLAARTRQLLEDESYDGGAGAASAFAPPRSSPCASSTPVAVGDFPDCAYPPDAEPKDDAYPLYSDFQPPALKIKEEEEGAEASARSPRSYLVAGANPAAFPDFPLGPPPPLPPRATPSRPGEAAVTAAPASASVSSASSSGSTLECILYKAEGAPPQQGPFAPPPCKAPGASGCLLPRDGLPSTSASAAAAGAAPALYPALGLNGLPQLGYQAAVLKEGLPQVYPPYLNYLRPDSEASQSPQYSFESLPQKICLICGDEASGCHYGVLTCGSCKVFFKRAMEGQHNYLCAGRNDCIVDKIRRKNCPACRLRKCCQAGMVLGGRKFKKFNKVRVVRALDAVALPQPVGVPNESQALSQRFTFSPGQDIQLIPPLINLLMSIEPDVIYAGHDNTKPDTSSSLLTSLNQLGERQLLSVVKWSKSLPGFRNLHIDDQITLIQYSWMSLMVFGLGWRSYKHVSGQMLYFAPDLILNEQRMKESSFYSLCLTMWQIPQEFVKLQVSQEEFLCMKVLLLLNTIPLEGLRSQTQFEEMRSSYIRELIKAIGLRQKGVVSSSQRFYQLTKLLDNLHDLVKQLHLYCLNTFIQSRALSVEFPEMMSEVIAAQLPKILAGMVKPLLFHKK
Note: assay procedure not described here.

Chain of Melanocortin receptor 3 (P41968 whole entry): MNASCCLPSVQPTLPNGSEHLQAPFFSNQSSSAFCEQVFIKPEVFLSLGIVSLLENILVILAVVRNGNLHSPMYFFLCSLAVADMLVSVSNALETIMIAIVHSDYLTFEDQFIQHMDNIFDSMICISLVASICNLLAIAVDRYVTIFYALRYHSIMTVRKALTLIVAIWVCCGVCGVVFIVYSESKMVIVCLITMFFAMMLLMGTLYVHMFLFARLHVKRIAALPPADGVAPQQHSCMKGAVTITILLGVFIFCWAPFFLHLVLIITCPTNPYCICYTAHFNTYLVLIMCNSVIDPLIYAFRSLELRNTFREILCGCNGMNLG
Chain of Beta-2 adrenergic receptor (P07550 whole entry): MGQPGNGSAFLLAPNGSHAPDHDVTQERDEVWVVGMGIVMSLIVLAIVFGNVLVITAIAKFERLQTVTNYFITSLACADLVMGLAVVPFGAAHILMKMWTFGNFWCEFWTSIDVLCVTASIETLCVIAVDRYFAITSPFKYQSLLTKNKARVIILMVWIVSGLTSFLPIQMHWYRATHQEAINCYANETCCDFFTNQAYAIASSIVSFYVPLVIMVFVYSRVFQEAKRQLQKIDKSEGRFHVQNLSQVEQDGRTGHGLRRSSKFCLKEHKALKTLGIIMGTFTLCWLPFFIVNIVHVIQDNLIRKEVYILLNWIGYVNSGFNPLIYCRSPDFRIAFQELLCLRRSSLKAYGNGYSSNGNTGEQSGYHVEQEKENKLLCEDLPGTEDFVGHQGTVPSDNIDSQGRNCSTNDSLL
Chain of Cannabinoid receptor 1 (P21554 whole entry): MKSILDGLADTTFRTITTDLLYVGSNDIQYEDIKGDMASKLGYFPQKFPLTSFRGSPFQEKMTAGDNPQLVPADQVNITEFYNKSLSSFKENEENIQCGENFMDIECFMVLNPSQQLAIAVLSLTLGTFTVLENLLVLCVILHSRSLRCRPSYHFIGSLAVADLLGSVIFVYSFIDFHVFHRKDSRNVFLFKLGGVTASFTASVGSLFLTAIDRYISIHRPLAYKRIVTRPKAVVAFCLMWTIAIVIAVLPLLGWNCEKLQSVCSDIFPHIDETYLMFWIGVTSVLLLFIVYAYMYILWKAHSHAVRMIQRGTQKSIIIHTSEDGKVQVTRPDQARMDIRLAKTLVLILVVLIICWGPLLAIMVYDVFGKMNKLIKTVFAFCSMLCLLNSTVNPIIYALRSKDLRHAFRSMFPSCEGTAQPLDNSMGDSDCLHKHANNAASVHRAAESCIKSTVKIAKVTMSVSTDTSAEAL
Chain of Vasopressin V1a receptor (P37288 whole entry): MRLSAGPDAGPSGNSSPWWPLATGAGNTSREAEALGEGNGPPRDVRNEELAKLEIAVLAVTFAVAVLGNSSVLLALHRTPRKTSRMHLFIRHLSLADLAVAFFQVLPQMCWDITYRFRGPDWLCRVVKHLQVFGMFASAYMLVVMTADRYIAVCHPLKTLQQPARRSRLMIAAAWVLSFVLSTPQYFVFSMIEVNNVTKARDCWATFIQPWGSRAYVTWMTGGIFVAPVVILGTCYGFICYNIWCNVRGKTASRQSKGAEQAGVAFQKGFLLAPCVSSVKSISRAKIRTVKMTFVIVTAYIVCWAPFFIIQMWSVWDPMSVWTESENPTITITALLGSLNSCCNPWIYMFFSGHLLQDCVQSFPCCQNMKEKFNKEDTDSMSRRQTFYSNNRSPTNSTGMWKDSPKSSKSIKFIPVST
Chain of Sodium-dependent dopamine transporter (Q01959 whole entry): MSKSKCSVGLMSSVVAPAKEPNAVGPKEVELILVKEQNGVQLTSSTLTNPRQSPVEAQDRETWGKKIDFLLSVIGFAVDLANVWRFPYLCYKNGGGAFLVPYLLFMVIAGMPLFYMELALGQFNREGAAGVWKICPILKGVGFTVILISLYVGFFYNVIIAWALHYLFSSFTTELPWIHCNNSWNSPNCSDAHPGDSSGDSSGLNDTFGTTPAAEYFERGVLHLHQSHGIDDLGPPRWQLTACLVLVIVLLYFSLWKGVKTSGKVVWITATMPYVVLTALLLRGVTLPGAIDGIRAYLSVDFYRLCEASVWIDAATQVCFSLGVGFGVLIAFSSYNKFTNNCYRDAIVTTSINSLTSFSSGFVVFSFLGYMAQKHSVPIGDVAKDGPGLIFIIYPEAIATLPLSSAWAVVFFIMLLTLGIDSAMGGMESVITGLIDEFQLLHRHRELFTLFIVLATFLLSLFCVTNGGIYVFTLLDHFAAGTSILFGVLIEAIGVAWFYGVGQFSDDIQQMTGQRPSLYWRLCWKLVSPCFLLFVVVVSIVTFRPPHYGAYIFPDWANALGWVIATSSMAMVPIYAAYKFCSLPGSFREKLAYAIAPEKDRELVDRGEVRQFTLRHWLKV

| SMILES | AC50 (Melanocortin receptor 3) [µM] | AC50 (Vasopressin V1a receptor) [µM] | AC50 [1] [µM] | AC50 [2] [µM] | AC50 [3] [µM] | AC50 [4] [µM] | AC50 (Cannabinoid receptor 1) [µM] | AC50 [5] [µM] | AC50 (Prothrombin) [µM] | AC50 [6] [µM] | AC50 (Progesterone receptor) [µM] |
| --- | --- | --- | --- | --- | --- | --- | --- | --- | --- | --- | --- |
| C[C@H](CCC(=O)O)[C@H]1CC[C@H]2[C@@H]3[C@@H](O)C[C@@H]4C[C@H](O)CC[C@]4(C)[C@H]3CC[C@]12C [URSODIOL] | > 30 | > 30 | > 30 | > 30 | > 30 | > 30 | – | – | – | – | – |
| CC(C(=O)O)c1ccc2c(c1)[nH]c1ccc(Cl)cc12 (stereo not given) [CARPROFEN] | > 30 | > 30 | > 30 | > 10 | > 30 | – | > 10 | – | – | – | – |
| CN(CC1(C)CCCO1)S(=O)(=O)c1ccc(Cl)c(S(N)(=O)=O)c1 (stereo not given) [MEFRUSIDE] | – | – | > 30 | – | – | > 30 | – | > 30 | > 30 | > 30 | > 30 |
| COc1cc2nc(N3CCN(C(=O)C4CCCO4)CC3)nc(N)c2cc1OC (stereo not given) [TERAZOSIN] | > 30 | > 10 | > 30 | > 10 | > 30 | – | > 10 | 11.8 | > 10 | > 30 | – |
| COc1ccccc1OCCNCC(O)COc1cccc2[nH]c3ccccc3c12 (stereo not given) [CARVEDILOL] | 28.8 | > 30 | 1.1 | 0.04 | 0.255 | – | > 10 | – | – | – | – |
| CCCN(CCC)C(=O)Cc1c(-c2ccc(Cl)cc2)nc2ccc(Cl)cn12 [ALPIDEM] | > 30 | > 30 | > 30 | > 30 | > 30 | – | > 30 | > 30 | > 30 | > 30 | > 30 |
| O=C1CN(/N=C/c2ccc(-c3ccc([N+](=O)[O-])cc3)o2)C(O)=N1 [DANTROLENE] | > 10 | > 10 | > 30 | > 10 | > 10 | – | > 10 | – | – | – | – |
| C[C@@H](NCCCc1cccc(C(F)(F)F)c1)c1cccc2ccccc12 | 13 | > 30 | 0.73 | > 30 | > 30 | > 30 | – | – | – | – | – |
| CC(=O)O[C@]1(C(C)=O)CC[C@H]2[C@@H]3C=C(C)C4=CC(=O)CC[C@@H]4[C@H]3CC[C@@]21C [NOMEGESTROL ACETATE] | > 30 | – | > 30 | > 30 | – | > 30 | – | > 30 | > 30 | > 30 | 0.003 |
| C#C[C@]1(O)CC[C@H]2[C@@H]3CCC4=CC(=O)CC[C@@H]4[C@H]3C(=C)C[C@@]21CC [ETONOGESTREL] | – | – | > 10 | > 30 | – | > 30 | – | > 30 | > 30 | > 30 | 0.003 |
